# Results: ChEMBL document CHEMBL4321792, “Discovery of 4-Methylquinazoline Based PI3K Inhibitors for the Potential Treatment of Idiopathic Pulmonary Fibrosis” (J Med Chem, 2019)
# Activity calls are given as the source filed them. No cut-off for these calls is given here.
# Key:
# [1] = target: PI3-kinase p110-alpha/p85-alpha (Homo sapiens, UniProt P42336); test: Inhibition of recombinant human N-terminal FLAG-tagged full-length p110alpha/human p85alpha expressed in Sf9 insect cells using PIP2 as substrate by kinase-glo assay
# [2] = Antifibrotic activity against mouse Mlg2908 cells assessed as reduction in cell viability measured after 72 hrs by MTT assay; format: functional, cell-based
# [3] = Apparent permeability across apical to basolateral side in human Caco2 cells measured after 90 mins by LC-MS/MS analysis; conditions: Caco-2
# [4] = Apparent permeability across basolateral to apical side in human Caco2 cells measured after 90 mins by LC-MS/MS analysis; conditions: Caco-2
# PI3K p110 beta/p85 alpha = PI3K p110 beta/p85 alpha (Homo sapiens, UniProt P42338); test: Inhibition of recombinant human N-terminal FLAG-tagged full-length p110beta/human p85alpha expressed in Sf9 insect cells using PIP2 as substrate by ADP-glo assay
# [5] = target: Phosphatidylinositol 4,5-bisphosphate 3-kinase catalytic subunit gamma isoform (Homo sapiens, UniProt P48736); test: Inhibition of recombinant human N-terminal His-tagged full-length p120gamma expressed in Sf9 insect cells using PIP2 as substrate by ADP-glo assay
# [6] = target: PI3-kinase p110-delta/p85-alpha (Homo sapiens, UniProt O00329); test: Inhibition of recombinant human N-terminal GST-tagged full-length p110delta/human p85alpha expressed in Sf9 insect cells using PIP2 as substrate by ADP-glo assay
# Mus musculus [7] = organism: Mus musculus; test: Inhibition of class 1 PI3K in mouse Mlg2908 cells assessed as reduction in AKT phosphorylation at S473 residue measured after 3 hrs by Western blot analysis; format: cell-based
# Mus musculus [8] = organism: Mus musculus; test: Inhibition of class 1 PI3K in mouse Mlg2908 cells assessed as reduction in AKT phosphorylation at T308 residue measured after 3 hrs by Western blot analysis; format: cell-based
# Mus musculus [9] = organism: Mus musculus; test: Inhibition of class 1 PI3K in mouse Mlg2908 cells assessed as reduction in p70S6K phosphorylation measured after 3 hrs by Western blot analysis; format: cell-based
# Mus musculus [10] = organism: Mus musculus; test: Inhibition of class 1 PI3K in mouse Mlg2908 cells assessed as reduction in S6RP phosphorylation measured after 3 hrs by Western blot analysis; format: cell-based
# [11] = Half life in ICR mouse at 0.5 mg/kg, iv by LC-MS/SM analysis; format: ADME, organism-based; conditions: in vivo
# [12] = Clearance in ICR mouse at 0.5 mg/kg, iv by LC-MS/SM analysis; format: ADME, organism-based; conditions: in vivo
# [13] = Volume of distribution at steady state in ICR mouse at 0.5 mg/kg, iv by LC-MS/SM analysis; format: ADME, organism-based; conditions: in vivo, read-out: Vdss
# [14] = AUC (0 to infinity) in ICR mouse at 0.5 mg/kg, iv by LC-MS/SM analysis; format: ADME, organism-based; set-up: dose 0.5 mg/kg, time infinity, route intravenous; conditions: in vivo
# [15] = Half life in ICR mouse at 5 mg/kg, po by LC-MS/SM analysis; format: ADME, organism-based; conditions: in vivo
# [16] = Cmax in ICR mouse at 5 mg/kg, po by LC-MS/SM analysis; format: ADME, organism-based; set-up: dose 5 mg/kg, route oral; conditions: in vivo
# [17] = AUC (0 to infinity) in ICR mouse at 5 mg/kg, po by LC-MS/SM analysis; format: ADME, organism-based; set-up: dose 5 mg/kg, route oral, time infinity; conditions: in vivo
# [18] = Oral bioavailability in ICR mouse at 5 mg/kg by LC-MS/SM analysis; format: ADME, organism-based; conditions: in vivo
# Mus musculus [19] = test: Antifibrotic activity in bleomycin-induced C57BL/6 mouse model of pulmonary fibrosis assessed as reduction in lung index at 30 mg/kg, po administered thrice daily for 18 days starting from 10 days post-bleomycin challenge and measured post last dose; format: functional, organism-based
# Mus musculus [20] = test: Antifibrotic activity in bleomycin-induced C57BL/6 mouse model of pulmonary fibrosis assessed as reduction in respiratory system resistance at 30 mg/kg, po administered thrice daily for 18 days starting from 10 days post-bleomycin challenge and measured post last dose; format: functional, organism-based
# Mus musculus [21] = test: Antifibrotic activity in bleomycin-induced C57BL/6 mouse model of pulmonary fibrosis assessed as reduction in inspiratory capacity at 30 mg/kg, po administered thrice daily for 18 days starting from 10 days post-bleomycin challenge and measured post last dose; format: functional, organism-based
# Mus musculus [22] = test: Antifibrotic activity in bleomycin-induced C57BL/6 mouse model of pulmonary fibrosis assessed as reduction in respiratory system elastance at 30 mg/kg, po administered thrice daily for 18 days starting from 10 days post-bleomycin challenge and measured post last dose; format: functional, organism-based
# Mus musculus [23] = test: Antifibrotic activity in bleomycin-induced C57BL/6 mouse model of pulmonary fibrosis assessed as reduction in respiratory system compliance at 30 mg/kg, po administered thrice daily for 18 days starting from 10 days post-bleomycin challenge and measured post last dose; format: functional, organism-based
# Mus musculus [24] = test: Antifibrotic activity in bleomycin-induced C57BL/6 mouse model of pulmonary fibrosis assessed as reduction in lung alpha-SMA level at 30 mg/kg, po administered thrice daily for 18 days starting from 10 days post-bleomycin challenge and measured post last dose by immunostaining-based histopathological analysis; format: functional, organism-based
# Mus musculus [25] = test: Antifibrotic activity in bleomycin-induced C57BL/6 mouse model of pulmonary fibrosis assessed as reduction in lung hydroxyproline level at 30 mg/kg, po administered thrice daily for 18 days starting from 10 days post-bleomycin challenge and measured post last dose; format: functional, organism-based
# Mus musculus [26] = test: Antifibrotic activity in bleomycin-induced C57BL/6 mouse model of pulmonary fibrosis assessed as reduction in lung fibronectin level at 30 mg/kg, po administered thrice daily for 18 days starting from 10 days post-bleomycin challenge and measured post last dose by Western blot analysis; format: functional, organism-based
# Mus musculus [27] = test: Antifibrotic activity in bleomycin-induced C57BL/6 mouse model of pulmonary fibrosis assessed as reduction in lung damage at 30 mg/kg, po administered thrice daily for 18 days starting from 10 days post-bleomycin challenge and measured post last dose by H and E staining-based histopathological analysis; format: functional, organism-based
# Mus musculus [28] = test: Antifibrotic activity in bleomycin-induced C57BL/6 mouse model of pulmonary fibrosis assessed as reduction in collagen fiber deposition at 30 mg/kg, po administered thrice daily for 18 days starting from 10 days post-bleomycin challenge and measured post last dose by Masson staining-based histopathological analysis; format: functional, organism-based
# PI3-kinase p110-alpha/p85-alpha, sequence (P27986 whole entry): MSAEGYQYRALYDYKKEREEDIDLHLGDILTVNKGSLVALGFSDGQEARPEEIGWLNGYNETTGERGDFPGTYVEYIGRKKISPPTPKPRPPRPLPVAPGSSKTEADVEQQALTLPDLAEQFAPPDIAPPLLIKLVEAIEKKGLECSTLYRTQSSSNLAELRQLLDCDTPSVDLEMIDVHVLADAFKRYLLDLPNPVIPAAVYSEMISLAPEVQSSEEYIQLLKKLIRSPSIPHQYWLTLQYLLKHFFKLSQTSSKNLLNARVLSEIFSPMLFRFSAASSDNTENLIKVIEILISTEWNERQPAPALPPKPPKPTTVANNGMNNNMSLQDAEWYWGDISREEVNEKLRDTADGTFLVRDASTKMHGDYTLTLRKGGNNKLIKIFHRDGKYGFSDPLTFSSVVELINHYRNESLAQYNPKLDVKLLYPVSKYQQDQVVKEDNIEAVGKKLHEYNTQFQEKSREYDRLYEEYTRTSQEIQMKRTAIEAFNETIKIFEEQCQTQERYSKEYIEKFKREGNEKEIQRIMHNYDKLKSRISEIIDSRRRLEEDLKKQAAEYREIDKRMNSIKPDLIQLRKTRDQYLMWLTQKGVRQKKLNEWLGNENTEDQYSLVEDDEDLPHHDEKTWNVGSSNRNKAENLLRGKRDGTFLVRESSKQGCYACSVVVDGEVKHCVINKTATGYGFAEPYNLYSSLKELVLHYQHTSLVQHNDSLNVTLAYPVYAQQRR
# PI3-kinase p110-alpha/p85-alpha, sequence (P42336 whole entry): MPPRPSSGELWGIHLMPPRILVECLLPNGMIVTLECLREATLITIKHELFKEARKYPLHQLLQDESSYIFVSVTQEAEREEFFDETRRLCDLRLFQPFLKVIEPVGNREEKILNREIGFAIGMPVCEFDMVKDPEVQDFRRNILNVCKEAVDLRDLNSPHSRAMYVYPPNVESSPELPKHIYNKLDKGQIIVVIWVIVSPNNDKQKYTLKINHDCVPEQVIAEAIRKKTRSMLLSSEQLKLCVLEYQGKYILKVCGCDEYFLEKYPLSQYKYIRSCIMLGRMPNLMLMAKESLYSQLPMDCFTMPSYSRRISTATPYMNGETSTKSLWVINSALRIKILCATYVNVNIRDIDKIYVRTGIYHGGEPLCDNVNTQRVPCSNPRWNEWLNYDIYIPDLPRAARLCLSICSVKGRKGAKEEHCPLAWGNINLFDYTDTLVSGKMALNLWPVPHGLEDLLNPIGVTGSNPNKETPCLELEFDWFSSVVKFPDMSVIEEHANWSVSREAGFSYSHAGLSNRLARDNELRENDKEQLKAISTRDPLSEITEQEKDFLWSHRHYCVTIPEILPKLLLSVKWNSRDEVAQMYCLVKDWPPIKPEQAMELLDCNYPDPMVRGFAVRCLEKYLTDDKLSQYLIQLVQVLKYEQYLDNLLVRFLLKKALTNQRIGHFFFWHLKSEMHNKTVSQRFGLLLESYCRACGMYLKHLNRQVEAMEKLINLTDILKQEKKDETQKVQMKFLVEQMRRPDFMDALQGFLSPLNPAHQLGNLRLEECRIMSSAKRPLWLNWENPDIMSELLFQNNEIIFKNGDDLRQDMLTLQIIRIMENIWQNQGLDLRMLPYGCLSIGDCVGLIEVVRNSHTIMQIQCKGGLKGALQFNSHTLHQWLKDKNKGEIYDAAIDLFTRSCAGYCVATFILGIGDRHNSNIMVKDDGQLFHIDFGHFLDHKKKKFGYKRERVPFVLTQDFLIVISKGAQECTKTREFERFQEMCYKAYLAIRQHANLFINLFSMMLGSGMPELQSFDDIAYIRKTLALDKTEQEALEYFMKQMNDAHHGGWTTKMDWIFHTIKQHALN
# Phosphatidylinositol 4,5-bisphosphate 3-kinase catalytic subunit gamma isoform, sequence (P48736 whole entry, canonical isoform): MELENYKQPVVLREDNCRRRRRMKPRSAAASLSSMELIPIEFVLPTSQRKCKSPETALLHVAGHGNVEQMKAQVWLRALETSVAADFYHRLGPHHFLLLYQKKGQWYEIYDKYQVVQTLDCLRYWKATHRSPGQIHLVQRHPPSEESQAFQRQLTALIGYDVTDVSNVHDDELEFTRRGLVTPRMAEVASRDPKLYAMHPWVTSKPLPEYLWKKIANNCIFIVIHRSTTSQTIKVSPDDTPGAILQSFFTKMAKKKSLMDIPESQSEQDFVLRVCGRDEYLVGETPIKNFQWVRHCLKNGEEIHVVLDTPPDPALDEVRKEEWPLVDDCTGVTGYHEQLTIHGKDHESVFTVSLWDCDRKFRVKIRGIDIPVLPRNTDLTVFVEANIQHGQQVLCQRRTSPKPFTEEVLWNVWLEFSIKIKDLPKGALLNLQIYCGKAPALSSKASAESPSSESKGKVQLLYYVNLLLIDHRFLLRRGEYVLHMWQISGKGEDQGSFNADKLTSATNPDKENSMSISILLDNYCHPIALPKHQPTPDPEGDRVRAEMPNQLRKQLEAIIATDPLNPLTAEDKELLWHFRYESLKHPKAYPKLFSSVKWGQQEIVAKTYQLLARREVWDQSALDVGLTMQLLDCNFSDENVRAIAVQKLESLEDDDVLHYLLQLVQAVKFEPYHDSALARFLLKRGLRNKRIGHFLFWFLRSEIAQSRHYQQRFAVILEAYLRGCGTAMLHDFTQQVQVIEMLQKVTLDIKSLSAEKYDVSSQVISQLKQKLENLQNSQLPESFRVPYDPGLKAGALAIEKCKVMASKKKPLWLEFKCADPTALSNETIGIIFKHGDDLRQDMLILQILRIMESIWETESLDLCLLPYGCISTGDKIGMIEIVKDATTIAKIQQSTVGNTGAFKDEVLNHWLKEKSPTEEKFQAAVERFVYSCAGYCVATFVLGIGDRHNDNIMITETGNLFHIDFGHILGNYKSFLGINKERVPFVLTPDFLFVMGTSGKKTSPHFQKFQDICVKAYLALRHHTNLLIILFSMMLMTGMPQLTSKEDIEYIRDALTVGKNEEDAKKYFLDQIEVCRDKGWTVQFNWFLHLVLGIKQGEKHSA
# PI3K p110 beta/p85 alpha, sequence (P27986 whole entry, canonical isoform): as the sequence (P27986 whole entry) above
# PI3K p110 beta/p85 alpha, sequence (P42338 whole entry, canonical isoform): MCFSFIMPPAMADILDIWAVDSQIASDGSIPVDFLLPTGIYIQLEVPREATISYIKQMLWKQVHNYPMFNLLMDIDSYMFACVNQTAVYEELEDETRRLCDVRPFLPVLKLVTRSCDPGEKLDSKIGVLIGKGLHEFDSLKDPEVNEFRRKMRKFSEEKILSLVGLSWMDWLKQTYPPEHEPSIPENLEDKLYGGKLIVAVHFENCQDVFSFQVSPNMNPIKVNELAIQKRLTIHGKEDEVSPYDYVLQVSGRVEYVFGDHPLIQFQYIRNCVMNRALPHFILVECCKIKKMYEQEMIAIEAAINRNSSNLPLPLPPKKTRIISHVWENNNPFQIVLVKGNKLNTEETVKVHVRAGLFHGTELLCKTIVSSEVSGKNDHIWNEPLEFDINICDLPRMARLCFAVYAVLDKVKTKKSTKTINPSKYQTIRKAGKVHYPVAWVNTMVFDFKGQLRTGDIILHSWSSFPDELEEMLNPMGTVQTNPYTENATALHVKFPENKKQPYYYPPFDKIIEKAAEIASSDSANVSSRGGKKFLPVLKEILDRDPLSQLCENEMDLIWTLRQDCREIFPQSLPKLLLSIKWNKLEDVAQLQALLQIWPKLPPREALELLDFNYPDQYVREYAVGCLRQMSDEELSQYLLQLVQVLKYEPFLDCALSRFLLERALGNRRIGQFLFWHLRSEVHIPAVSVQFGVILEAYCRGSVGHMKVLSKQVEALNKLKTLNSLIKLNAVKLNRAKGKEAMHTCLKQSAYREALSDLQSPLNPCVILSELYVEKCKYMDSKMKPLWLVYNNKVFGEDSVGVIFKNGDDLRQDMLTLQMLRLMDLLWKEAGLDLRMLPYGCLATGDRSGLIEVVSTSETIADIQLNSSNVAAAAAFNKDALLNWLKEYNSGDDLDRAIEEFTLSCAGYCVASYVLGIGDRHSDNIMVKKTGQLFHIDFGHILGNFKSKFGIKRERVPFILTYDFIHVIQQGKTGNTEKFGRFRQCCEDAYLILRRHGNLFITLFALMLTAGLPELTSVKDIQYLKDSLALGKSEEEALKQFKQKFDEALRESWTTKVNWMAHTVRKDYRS
# PI3-kinase p110-delta/p85-alpha, sequence (P27986 whole entry): as the sequence (P27986 whole entry) above
# PI3-kinase p110-delta/p85-alpha, sequence (O00329 whole entry): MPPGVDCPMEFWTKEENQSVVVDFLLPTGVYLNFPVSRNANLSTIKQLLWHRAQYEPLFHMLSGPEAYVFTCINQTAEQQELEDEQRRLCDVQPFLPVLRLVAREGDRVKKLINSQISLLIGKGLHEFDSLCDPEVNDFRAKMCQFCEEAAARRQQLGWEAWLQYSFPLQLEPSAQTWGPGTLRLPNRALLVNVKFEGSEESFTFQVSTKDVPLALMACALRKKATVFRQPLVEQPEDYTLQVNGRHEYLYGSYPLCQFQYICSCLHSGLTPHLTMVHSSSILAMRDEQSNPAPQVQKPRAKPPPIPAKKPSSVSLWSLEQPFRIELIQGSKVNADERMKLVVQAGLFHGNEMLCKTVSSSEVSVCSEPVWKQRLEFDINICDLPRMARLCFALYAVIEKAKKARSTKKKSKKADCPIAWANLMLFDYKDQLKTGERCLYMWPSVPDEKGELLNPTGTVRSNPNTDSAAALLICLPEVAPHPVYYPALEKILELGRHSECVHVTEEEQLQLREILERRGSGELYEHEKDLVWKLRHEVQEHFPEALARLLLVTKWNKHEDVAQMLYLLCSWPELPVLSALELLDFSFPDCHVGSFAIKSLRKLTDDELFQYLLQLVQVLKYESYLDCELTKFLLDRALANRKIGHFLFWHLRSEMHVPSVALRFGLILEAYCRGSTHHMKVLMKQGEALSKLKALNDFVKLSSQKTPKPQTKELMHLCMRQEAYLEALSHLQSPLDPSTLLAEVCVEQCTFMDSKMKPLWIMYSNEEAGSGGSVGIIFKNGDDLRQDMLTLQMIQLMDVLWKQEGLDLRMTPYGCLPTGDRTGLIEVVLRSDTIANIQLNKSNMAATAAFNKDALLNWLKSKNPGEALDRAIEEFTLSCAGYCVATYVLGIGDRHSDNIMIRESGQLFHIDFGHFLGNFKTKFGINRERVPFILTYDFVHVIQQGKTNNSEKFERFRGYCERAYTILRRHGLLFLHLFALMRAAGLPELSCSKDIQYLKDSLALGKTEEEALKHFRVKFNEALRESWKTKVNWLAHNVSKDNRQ
SMILES,IC50 [1] [nM],Papp A→B at 1.5 h [3] [×10⁻⁶ cm/s],Papp B→A at 1.5 h [4] [×10⁻⁶ cm/s],IC50 [2] [nM],other results
COc1ncc(-c2cc(O[C@@H]3CCOC3)c3ncnc(C)c3c2)cc1NS(=O)(=O)c1ccc(F)cc1F,0.88,38,37,10,IC50 (PI3K p110 beta/p85 alpha): 0.34 nM; IC50 [5]: 1.5 nM; IC50 [6]: 0.35 nM; inhibition (Mus musculus [7]): Dose-dependent effect; inhibition (Mus musculus [8]): Dose-dependent effect; inhibition (Mus musculus [9]): Dose-dependent effect; inhibition (Mus musculus [10]): Dose-dependent effect; half-life [11]: 0.36 h; clearance [12]: 16 mL/min/kg; Vd [13]: 0.5 L/kg; AUC(0-inf) [14]: 520 ng·h/mL; half-life [15]: 4.08 h; Cmax [16]: 1440 ng/mL; AUC(0-inf) [17]: 3170 ng·h/mL; bioavailability [18]: 58.7%
COc1ncc(-c2cc(OCC3CC3)c3ncnc(C)c3c2)cc1NS(=O)(=O)c1ccc(F)cc1F,1.5,30,23,20,
Cc1c(Cn2c(C)nc3c(C(=O)O)cc(N4CCOCC4)cc32)cccc1C(F)(F)F [GSK-2636771],,,,> 20000,
COc1ncc(-c2cc(OC(F)F)c3ncnc(C)c3c2)cc1NS(=O)(=O)c1ccc(F)cc1F,1.7,34,17,130,
COc1ncc(-c2ccc3nccc(-c4ccnnc4)c3c2)cc1NS(=O)(=O)c1ccc(F)cc1F [OMIPALISIB],,,,4,
CC[C@H](Nc1ncnc2[nH]cnc12)c1nc2cccc(F)c2c(=O)n1-c1ccccc1 [IDELALISIB],,,,> 20000,
COc1ncc(-c2cc(OC3CCCC3)c3ncnc(C)c3c2)cc1NS(=O)(=O)c1ccc(F)cc1F,1,28,17,15,
C[C@H](Nc1ncnc2nc[nH]c12)c1cc2cccc(Cl)c2c(=O)n1-c1ccccc1 [DUVELISIB],,,,6900,
COc1ncc(-c2cc(OCC3CCOC3)c3ncnc(C)c3c2)cc1NS(=O)(=O)c1ccc(F)cc1F (stereo not given),0.95,34,39,4,
COc1ncc(-c2cc(OC3CCOCC3)c3nc(N)nc(C)c3c2)cc1NS(=O)(=O)c1ccc(F)cc1F,,,,140,
COc1ncc(-c2cc(OCC3CCN(C)CC3)c3ncnc(C)c3c2)cc1NS(=O)(=O)c1ccc(F)cc1F,1.6,8.8,38,81,
COc1ncc(-c2cc(OC3CCC3)c3ncnc(C)c3c2)cc1NS(=O)(=O)c1ccc(F)cc1F,1,44,30,3,
C[C@H](NC(=O)c1c(N)nn2cccnc12)c1cc2cccc(C#Cc3cnn(C)c3)c2c(=O)n1-c1ccccc1 [EGANELISIB],,,,980,
Cc1ccc(=O)n(-c2ccccc2)c1,,,,,Activity (Mus musculus [19]): Active; Activity (Mus musculus [20]): Active; Activity (Mus musculus [21]): Active; Activity (Mus musculus [22]): Active; Activity (Mus musculus [23]): Active; Activity (Mus musculus [24]): Active; Activity (Mus musculus [25]): Active; Activity (Mus musculus [26]): Active; Activity (Mus musculus [27]): Active; Activity (Mus musculus [28]): Active
COc1ncc(-c2cc(OC(C)C)c3ncnc(C)c3c2)cc1NS(=O)(=O)c1ccc(F)cc1F,2,32,22,13,
Cc1nc(NC(=O)N2CCC[C@H]2C(N)=O)sc1-c1ccnc(C(C)(C)C(F)(F)F)c1 [ALPELISIB],,,,3500,

# Second part, led by results:
IC50 [1] [nM],Papp A→B at 1.5 h [3] [×10⁻⁶ cm/s],Papp B→A at 1.5 h [4] [×10⁻⁶ cm/s],SMILES,IC50 [2] [nM],other results
31,39,31,COc1ccc(-c2cc(OC3CCOCC3)c3ncnc(C)c3c2)cn1,17000,
0.89,31,22,COc1ncc(-c2cc(OC3CCOC(C)(C)C3)c3ncnc(C)c3c2)cc1NS(=O)(=O)c1ccc(F)cc1F (stereo not given),2,
0.92,31,33,COc1ncc(-c2cc(OCC3CCOCC3)c3ncnc(C)c3c2)cc1NS(=O)(=O)c1ccc(F)cc1F,8,
2.1,4.5,46,COc1ncc(-c2cc(OC3CCN(C)CC3)c3ncnc(C)c3c2)cc1NS(=O)(=O)c1ccc(F)cc1F,230,
5.3,10,51,COc1ncc(-c2cc(OCCN(C)C)c3ncnc(C)c3c2)cc1NS(=O)(=O)c1ccc(F)cc1F,460,
6.8,7.5,38,COc1ncc(-c2cc(OCCN3CCCC3)c3ncnc(C)c3c2)cc1NS(=O)(=O)c1ccc(F)cc1F,1300,
2.3,13,33,COc1ncc(-c2cc(OCCN3CCOCC3)c3ncnc(C)c3c2)cc1NS(=O)(=O)c1ccc(F)cc1F,210,
1.5,16,21,COc1ncc(-c2cc(OC3CCCCC3)c3ncnc(C)c3c2)cc1NS(=O)(=O)c1ccc(F)cc1F,33,
1.2,35,31,COc1ncc(-c2cc(OC)c3ncnc(C)c3c2)cc1NS(=O)(=O)c1ccc(F)cc1F,130,
